Assay results: patent US20240083897A1, “GCN2 MODULATING COMPOUNDS AND USES THEREOF” (HiberCell, Inc., priority 2021, published 2024)

target: GCN2 (Homo sapiens (Human), UniProt Q9P2K8); assay: TR-FRET biochemical assay for inhibition of GCN2; conditions: not given
Sequence (Q9P2K8 whole entry): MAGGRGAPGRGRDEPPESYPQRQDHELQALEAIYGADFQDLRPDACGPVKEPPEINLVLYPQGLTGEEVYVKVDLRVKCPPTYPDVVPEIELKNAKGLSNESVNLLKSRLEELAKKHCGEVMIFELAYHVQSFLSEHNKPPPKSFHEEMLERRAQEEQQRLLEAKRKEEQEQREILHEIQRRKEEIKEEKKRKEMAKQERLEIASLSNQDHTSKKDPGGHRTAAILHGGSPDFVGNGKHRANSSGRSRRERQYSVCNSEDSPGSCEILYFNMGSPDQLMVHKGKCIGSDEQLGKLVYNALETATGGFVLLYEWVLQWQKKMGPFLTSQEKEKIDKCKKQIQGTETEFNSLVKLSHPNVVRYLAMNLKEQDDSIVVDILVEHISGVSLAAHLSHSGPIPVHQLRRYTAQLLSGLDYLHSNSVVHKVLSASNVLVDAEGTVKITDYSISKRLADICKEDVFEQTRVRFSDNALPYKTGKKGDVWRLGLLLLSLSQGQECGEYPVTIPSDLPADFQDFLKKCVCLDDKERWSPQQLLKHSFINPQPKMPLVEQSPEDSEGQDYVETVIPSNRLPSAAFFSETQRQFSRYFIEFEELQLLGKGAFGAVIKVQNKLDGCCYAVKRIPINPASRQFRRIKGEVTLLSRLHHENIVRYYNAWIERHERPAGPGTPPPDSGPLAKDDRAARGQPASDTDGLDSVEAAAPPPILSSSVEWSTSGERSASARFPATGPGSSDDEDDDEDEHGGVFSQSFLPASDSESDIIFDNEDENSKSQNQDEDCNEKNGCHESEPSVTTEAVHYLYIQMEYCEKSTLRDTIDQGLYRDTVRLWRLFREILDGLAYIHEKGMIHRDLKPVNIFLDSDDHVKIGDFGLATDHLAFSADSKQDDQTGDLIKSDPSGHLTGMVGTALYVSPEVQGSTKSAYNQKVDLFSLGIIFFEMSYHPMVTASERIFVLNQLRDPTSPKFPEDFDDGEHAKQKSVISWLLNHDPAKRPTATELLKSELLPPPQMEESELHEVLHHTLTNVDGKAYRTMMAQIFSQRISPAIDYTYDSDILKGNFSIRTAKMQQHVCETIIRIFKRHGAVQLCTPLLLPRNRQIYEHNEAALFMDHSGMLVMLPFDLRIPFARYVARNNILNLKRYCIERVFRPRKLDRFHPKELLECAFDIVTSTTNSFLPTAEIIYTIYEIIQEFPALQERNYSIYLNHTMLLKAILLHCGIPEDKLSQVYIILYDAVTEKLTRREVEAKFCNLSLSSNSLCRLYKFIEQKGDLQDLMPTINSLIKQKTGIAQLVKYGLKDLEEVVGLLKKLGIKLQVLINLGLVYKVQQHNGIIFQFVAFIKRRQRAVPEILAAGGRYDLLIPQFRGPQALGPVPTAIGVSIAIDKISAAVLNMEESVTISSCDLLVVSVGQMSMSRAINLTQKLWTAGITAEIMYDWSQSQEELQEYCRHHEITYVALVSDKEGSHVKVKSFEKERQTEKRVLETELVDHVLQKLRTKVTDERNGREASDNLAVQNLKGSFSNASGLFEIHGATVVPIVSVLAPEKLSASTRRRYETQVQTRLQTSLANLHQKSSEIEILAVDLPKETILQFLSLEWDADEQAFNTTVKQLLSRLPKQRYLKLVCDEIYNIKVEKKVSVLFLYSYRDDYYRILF

**Q.** `CNC(=O)c1ncn2cc(-c3c(F)ccc(NS(=O)(=O)c4cc(Cl)cnc4OC)c3C#N)ncc12` [Compound 117, 6-[3-(5-chloro-2-methoxypyridine-3-sulfonamido)-2-cyano-6-fluorophenyl]-N-methylimidazo[1,5-a]pyrazine-1-carboxamide] was tested. Which IC50 did it give?
**A.** The IC50 was 50 to 500 nM.

**Q.** How did the IC50 turn out when `CNC(=O)c1ncn2cc(-c3c(F)ccc(NS(=O)(=O)c4cc(Cl)cnc4OC)c3F)sc12` [Compound 120, 2-[3-(5-chloro-2-methoxypyridine-3-sulfonamido)-2,6-difluorophenyl]-N-methylimidazo[4,3-b][1,3]thiazole-7-carboxamide] was run?
**A.** Its IC50 is 500 to 1000 nM.

**Q.** `CNC(=O)c1ncn2cc(-c3c(F)ccc(NS(=O)(=O)c4cc(Cl)cnc4OC)c3C)ccc12` [Compound 122, 6-[3-(5-chloro-2-methoxypyridine-3-sulfonamido)-6-fluoro-2-methylphenyl]-N-methylimidazo[1,5-a]pyridine-1-carboxamide] was tested. Which IC50 did it give?
**A.** Its IC50 is 50 to 500 nM.

**Q.** For `COc1ncc(F)cc1S(=O)(=O)Nc1ccc(F)c(-c2cn3cnc(-c4nnc(C)[nH]4)c3cn2)c1F` [Compound 127, N-[2,4-difluoro-3-[1-(5-methyl-4H-1,2,4-triazol-3-yl)imidazo[1,5-a]pyrazin-6-yl]phenyl]-5-fluoro-2-methoxypyridine-3-sulfonamide], which IC50 is on record?
**A.** Its IC50 is 50 to 500 nM.

**Q.** Which IC50 does the source give for `COc1ncc(C#N)cc1S(=O)(=O)Nc1ccc(F)c(-c2cn3cnc(-c4nnc(C)[nH]4)c3cn2)c1F` [Compound 128, 5-cyano-N-[2,4-difluoro-3-[1-(5-methyl-4H-1,2,4-triazol-3-yl)imidazo[1,5-a]pyrazin-6-yl]phenyl]-2-methoxypyridine-3-sulfonamide] here?
**A.** The IC50 was 50 to 500 nM.

**Q.** With `COc1ncc(C#N)cc1S(=O)(=O)Nc1ccc(F)c([C@@H]2CCc3c(-c4nnc(C)[nH]4)ncn3C2)c1F` [Compound 135-1, 5-cyano-N-[2,4-difluoro-3-[(6S)-1-(5-methyl-4H-1,2,4-triazol-3-yl)-5H,6H,7H,8H-imidazo[1,5-a]pyridin-6-yl]phenyl]-2-methoxypyridine-3-sulfonamide] as the molecule, how does the IC50 read?
**A.** Its IC50 is 50 to 500 nM.

**Q.** How did the IC50 turn out when `COc1ncc(C#N)cc1S(=O)(=O)Nc1ccc(F)c([C@H]2CCc3c(-c4nnc(C)[nH]4)ncn3C2)c1F` [Compound 135-2, 5-cyano-N-[2,4-difluoro-3-[(6R)-1-(5-methyl-4H-1,2,4-triazol-3-yl)-5H,6H,7H,8H-imidazo[1,5-a]pyridin-6-yl]phenyl]-2-methoxypyridine-3-sulfonamide] was run?
**A.** The IC50 was 50 to 500 nM.

same assay, conditions: GCN2 2 nM, 100 nM GFP-eIF2a, 150 μM ATP, TR-FRET

**Q.** How did the IC50 turn out when `COc1ncc(F)cc1S(=O)(=O)Nc1ccc(F)c(-c2ccc3c(-c4ccno4)ncn3c2)c1F` [Compound 118, N-[2,4-difluoro-3-[1-(1,2-oxazol-5-yl)imidazo[1,5-a]pyridin-6-yl]phenyl]-5-fluoro-2-methoxypyridine-3-sulfonamide] was run?
**A.** Its IC50 is < 50 nM.

**Q.** `COc1ncc(C#N)cc1S(=O)(=O)Nc1ccc(F)c(-c2ccc3c(-c4ccno4)ncn3c2)c1F` [Compound 119, 5-cyano-N-[2,4-difluoro-3-[1-(1,2-oxazol-5-yl)imidazo[1,5-a]pyridin-6-yl]phenyl]-2-methoxypyridine-3-sulfonamide] was tested. Which IC50 did it give?
**A.** Its IC50 is < 50 nM.

**Q.** How did the IC50 turn out when `Cc1ncc(Cl)cc1S(=O)(=O)Nc1ccc(F)c(-c2ccc3c(-c4ccno4)ncn3c2)c1F` [Compound 121, 5-chloro-N-[2,4-difluoro-3-[1-(1,2-oxazol-5-yl)imidazo[1,5-a]pyridin-6-yl]phenyl]-2-methylpyridine-3-sulfonamide] was run?
**A.** Its IC50 is < 50 nM.

**Q.** How did the IC50 turn out when `COc1ncc(C#N)cc1S(=O)(=O)Nc1ccc(F)c(-c2ccc3c(-c4nc5c([nH]4)CCCC5)ncn3c2)c1F` [Compound 123, 5-cyano-N-[2,4-difluoro-3-[1-(4,5,6,7-tetrahydro-1H-1,3-benzodiazol-2-yl)imidazo[1,5-a]pyridin-6-yl]phenyl]-2-methoxypyridine-3-sulfonamide] was run?
**A.** The IC50 was < 50 nM.

**Q.** How did the IC50 turn out when `COc1ncc(Cl)cc1S(=O)(=O)Nc1ccc(F)c(-c2cn3cnc(-c4nnc(C)[nH]4)c3cn2)c1F` [Compound 124, 5-chloro-N-[2,4-difluoro-3-[1-(5-methyl-4H-1,2,4-triazol-3-yl)imidazo[1,5-a]pyrazin-6-yl]phenyl]-2-methoxypyridine-3-sulfonamide] was run?
**A.** The IC50 was < 50 nM.

**Q.** Which IC50 does the source give for `Cc1ncc(F)cc1S(=O)(=O)Nc1ccc(F)c(-c2ccc3c(-c4ccno4)ncn3c2)c1F` [Compound 125, N-[2,4-difluoro-3-[1-(1,2-oxazol-5-yl)imidazo[1,5-a]pyridin-6-yl]phenyl]-5-fluoro-2-methylpyridine-3-sulfonamide] here?
**A.** Its IC50 is < 50 nM.

**Q.** For `COc1ncc(C#N)cc1S(=O)(=O)Nc1ccc(F)c(-c2ccc3c(-c4nc(C)c(C)[nH]4)ncn3c2)c1F` [Compound 126, 5-cyano-N-[3-[1-(4,5-dimethyl-1H-imidazol-2-yl)imidazo[1,5-a]pyridin-6-yl]-2,4-difluorophenyl]-2-methoxypyridine-3-sulfonamide], which IC50 is on record?
**A.** Its IC50 is < 50 nM.

**Q.** How did the IC50 turn out when `Cc1nnc(-c2ncn3cc(-c4c(F)ccc(NS(=O)(=O)c5cc(F)cnc5C)c4F)ncc23)[nH]1` [Compound 129, N-[2,4-difluoro-3-[1-(5-methyl-4H-1,2,4-triazol-3-yl)imidazo[1,5-a]pyrazin-6-yl]phenyl]-5-fluoro-2-methylpyridine-3-sulfonamide] was run?
**A.** Its IC50 is < 50 nM.

**Q.** With `COc1ncc(Cl)cc1S(=O)(=O)Nc1ccc(F)c([C@@H]2CCc3c(-c4nnc(C)[nH]4)ncn3C2)c1F` [Compound 130-1, 5-chloro-N-[2,4-difluoro-3-[(6S)-1-(5-methyl-4H-1,2,4-triazol-3-yl)-5H,6H,7H,8H-imidazo[1,5-a]pyridin-6-yl]phenyl]-2-methoxypyridine-3-sulfonamide] as the molecule, how does the IC50 read?
**A.** Its IC50 is < 50 nM.

**Q.** `COc1ncc(Cl)cc1S(=O)(=O)Nc1ccc(F)c([C@H]2CCc3c(-c4nnc(C)[nH]4)ncn3C2)c1F` [Compound 130-2, 5-chloro-N-[2,4-difluoro-3-[(6R)-1-(5-methyl-4H-1,2,4-triazol-3-yl)-5H,6H,7H,8H-imidazo[1,5-a]pyridin-6-yl]phenyl]-2-methoxypyridine-3-sulfonamide] was tested. Which IC50 did it give?
**A.** Its IC50 is < 50 nM.

**Q.** How did the IC50 turn out when `COc1ncc(F)cc1S(=O)(=O)Nc1ccc(F)c([C@@H]2CCc3c(-c4nnc(C)[nH]4)ncn3C2)c1F` [Compound 131-1, N-[2,4-difluoro-3-[(6S)-1-(5-methyl-4H-1,2,4-triazol-3-yl)-5H,6H,7H,8H-imidazo[1,5-a]pyridin-6-yl]phenyl]-5-fluoro-2-methoxypyridine-3-sulfonamide] was run?
**A.** Its IC50 is < 50 nM.

**Q.** For `COc1ncc(F)cc1S(=O)(=O)Nc1ccc(F)c([C@H]2CCc3c(-c4nnc(C)[nH]4)ncn3C2)c1F` [Compound 131-2, N-[2,4-difluoro-3-[(6R)-1-(5-methyl-4H-1,2,4-triazol-3-yl)-5H,6H,7H,8H-imidazo[1,5-a]pyridin-6-yl]phenyl]-5-fluoro-2-methoxypyridine-3-sulfonamide], which IC50 is on record?
**A.** The IC50 was < 50 nM.

**Q.** `CNC(=O)c1ncn2cc(-c3c(F)ccc(NS(=O)(=O)c4cc(Cl)c[nH]c4=O)c3F)ncc12` [Compound 132, 6-(3-((5-chloro-2-oxo-1,2-dihydropyridine)-3-sulfonamido)-2,6-difluorophenyl)-N-methylimidazo[1,5-a]pyrazine-1-carboxamide] was tested. Which IC50 did it give?
**A.** The IC50 was > 1000 nM.

**Q.** For `Cc1nnc(-c2ncn3cc(-c4c(F)ccc(NS(=O)(=O)c5cc(Cl)cnc5C)c4F)ncc23)[nH]1` [Compound 133, 5-chloro-N-[2,4-difluoro-3-[1-(5-methyl-4H-1,2,4-triazol-3-yl)imidazo[1,5-a]pyrazin-6-yl]phenyl]-2-methylpyridine-3-sulfonamide], which IC50 is on record?
**A.** The IC50 was < 50 nM.

**Q.** For `Cc1nnc(-c2ncn3c2CC[C@@H](c2c(F)ccc(NS(=O)(=O)c4cc(F)cnc4C)c2F)C3)[nH]1` [Compound 134-1, N-[2,4-difluoro-3-[(6S)-1-(5-methyl-4H-1,2,4-triazol-3-yl)-5H,6H,7H,8H-imidazo[1,5-a]pyridin-6-yl]phenyl]-5-fluoro-2-methylpyridine-3-sulfonamide], which IC50 is on record?
**A.** The IC50 was < 50 nM.

**Q.** For `Cc1nnc(-c2ncn3c2CC[C@H](c2c(F)ccc(NS(=O)(=O)c4cc(F)cnc4C)c2F)C3)[nH]1` [Compound 134-2, N-[2,4-difluoro-3-[(6R)-1-(5-methyl-4H-1,2,4-triazol-3-yl)-5H,6H,7H,8H-imidazo[1,5-a]pyridin-6-yl]phenyl]-5-fluoro-2-methylpyridine-3-sulfonamide], which IC50 is on record?
**A.** The IC50 was < 50 nM.

**Q.** For `Cc1nnc(-c2ncn3c2CC[C@@H](c2c(F)ccc(NS(=O)(=O)c4cc(Cl)cnc4C)c2F)C3)[nH]1` [Compound 136-1, 5-chloro-N-[2,4-difluoro-3-[(6S)-1-(5-methyl-4H-1,2,4-triazol-3-yl)-5H,6H,7H,8H-imidazo[1,5-a]pyridin-6-yl]phenyl]-2-methylpyridine-3-sulfonamide], which IC50 is on record?
**A.** The IC50 was < 50 nM.

**Q.** With `Cc1nnc(-c2ncn3c2CC[C@H](c2c(F)ccc(NS(=O)(=O)c4cc(Cl)cnc4C)c2F)C3)[nH]1` [Compound 136-2, 5-chloro-N-[2,4-difluoro-3-[(6R)-1-(5-methyl-4H-1,2,4-triazol-3-yl)-5H,6H,7H,8H-imidazo[1,5-a]pyridin-6-yl]phenyl]-2-methylpyridine-3-sulfonamide] as the molecule, how does the IC50 read?
**A.** Its IC50 is < 50 nM.

**Q.** `CNC(=O)c1ncn2cc(-c3c(Cl)ccc(NS(=O)(=O)c4cc(Cl)cnc4OC)c3F)ccc12` [Compound 137, 6-[6-chloro-3-(5-chloro-2-methoxypyridine-3-sulfonamido)-2-fluorophenyl]-N-methylimidazo[1,5-a]pyridine-1-carboxamide] was tested. Which IC50 did it give?
**A.** Its IC50 is < 50 nM.

**Q.** Which IC50 does the source give for `CNC(=O)c1ncn2nc(-c3c(Cl)ccc(NS(=O)(=O)c4cc(Cl)cnc4C)c3F)ccc12` [Compound 138, 2-[6-chloro-3-(5-chloro-2-methylpyridine-3-sulfonamido)-2-fluorophenyl]-N-methylimidazo[1,5-b]pyridazine-5-carboxamide] here?
**A.** Its IC50 is < 50 nM.

**Q.** With `CNC(=O)c1ncn2nc(-c3c(F)ccc(NS(=O)(=O)c4cc(Cl)cnc4C)c3Cl)ccc12` [Compound 139, 2-[2-chloro-3-(5-chloro-2-methylpyridine-3-sulfonamido)-6-fluorophenyl]-N-methylimidazo[1,5-b]pyridazine-5-carboxamide] as the molecule, how does the IC50 read?
**A.** Its IC50 is < 50 nM.

**Q.** With `CNC(=O)c1ncn2cc(-c3c(Cl)ccc(NS(=O)(=O)c4cc(Cl)cnc4OC)c3F)ncc12` [Compound 141, 6-(6-chloro-3-((5-chloro-2-methoxypyridine)-3-sulfonamido)-2-fluorophenyl)-N-methylimidazo[1,5-a]pyrazine-1-carboxamide] as the molecule, how does the IC50 read?
**A.** The IC50 was < 50 nM.
